In PubChem BioAssay (NCI):
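Following 48 hours of exposure in 96-well plates, responses at five concentrations were used to interpolate endpoints linearly. TGI denotes the concentration required for complete inhibition of growth.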

Experiments:
Assay in all cases: NCI anticancer screen, dose series, 48 h
RXF 393 renal = system: RXF 393 renal
OVCAR-8 ovarian = system: OVCAR-8 ovarian
SK-MEL-5 melanoma = system: SK-MEL-5 melanoma
MDA-N = system: MDA-N
HCT-15 colon = system: HCT-15 colon
NCI-H226 lung = system: NCI-H226 lung
M14 melanoma = system: M14 melanoma
HL-60(TB) leukemia = system: HL-60(TB) leukemia
HT29 colon = system: HT29 colon
K-562 leukemia = system: K-562 leukemia
MOLT-4 leukemia = system: MOLT-4 leukemia
HS 578T breast = system: HS 578T breast
SNB-19 CNS = system: SNB-19 CNS
SK-MEL-2 melanoma = system: SK-MEL-2 melanoma
NCI-H460 lung = system: NCI-H460 lung
SK-OV-3 ovarian = system: SK-OV-3 ovarian
MCF7 breast = system: MCF7 breast
NCI-H23 lung = system: NCI-H23 lung
A498 renal = system: A498 renal
SF-268 CNS = system: SF-268 CNS
SW-620 colon = system: SW-620 colon
KM12 colon = system: KM12 colon
CCRF-CEM leukemia = system: CCRF-CEM leukemia
TK-10 renal = system: TK-10 renal
OVCAR-4 ovarian = system: OVCAR-4 ovarian
MALME-3M melanoma = system: MALME-3M melanoma
CAKI-1 renal = system: CAKI-1 renal
ACHN renal = system: ACHN renal
RPMI-8226 leukemia = system: RPMI-8226 leukemia
HCC-2998 colon = system: HCC-2998 colon
UACC-62 melanoma = system: UACC-62 melanoma
OVCAR-5 ovarian = system: OVCAR-5 ovarian
DU-145 prostate = system: DU-145 prostate
MDA-MB-435 = system: MDA-MB-435
IGROV1 ovarian = system: IGROV1 ovarian
OVCAR-3 ovarian = system: OVCAR-3 ovarian
EKVX NSCLC = system: EKVX NSCLC
SK-MEL-28 melanoma = system: SK-MEL-28 melanoma
NCI-H522 lung = system: NCI-H522 lung
HCT-116 colon = system: HCT-116 colon
MDA-MB-231 breast = system: MDA-MB-231 breast
HOP-92 NSCLC = system: HOP-92 NSCLC
T-47D breast = system: T-47D breast
HOP-62 NSCLC = system: HOP-62 NSCLC
PC-3 prostate = system: PC-3 prostate
U251 CNS = system: U251 CNS
SF-539 CNS = system: SF-539 CNS
COLO 205 colon = system: COLO 205 colon
UACC-257 melanoma = system: UACC-257 melanoma
BT-549 breast = system: BT-549 breast
786-0 renal = system: 786-0 renal
A549 NSCLC = system: A549 NSCLC
LOX IMVI melanoma = system: LOX IMVI melanoma
UO-31 renal = system: UO-31 renal
SF-295 CNS = system: SF-295 CNS
SNB-75 CNS = system: SNB-75 CNS
NCI/ADR-RES ovarian = system: NCI/ADR-RES ovarian
SR leukemia = system: SR leukemia
SN12C renal = system: SN12C renal

Measured: TGI

CCOC(=O)c1cn(CC)c2ccc3ccsc3c2c1=O
not listed: SR leukemia | SN12C renal
> 100 µM: all other assays above

CN1CC=C(c2cccn2C)CC1
not listed: NCI-H460 lung | A498 renal | HOP-92 NSCLC | SF-539 CNS
> 100 µM: all other assays above
